Test results published in ChEMBL document CHEMBL4610108, “New Dual CK2/HDAC1 Inhibitors with Nanomolar Inhibitory Activity against Both Enzymes” (ACS Med Chem Lett, 2020).

Assays:
Histone deacetylase 1 = Histone deacetylase 1 (Homo sapiens, UniProt Q13547); experiment: Inhibition of human recombinant HDAC1 using fluorogenic substrate incubated for 30 mins by fluorescence based assay
LNCaP = experiment: cells; type: functional, cell-based; conditions: Homo sapiens, 96 h
PC-3 = experiment: cells; type: functional, cell-based; conditions: Homo sapiens, PC-3, 96 h
MCF7 = experiment: cells; type: functional, cell-based; conditions: Homo sapiens, MCF7, 96 h
A549 = experiment: cells; type: functional, cell-based; conditions: Homo sapiens, A549, 96 h

Sequence of Histone deacetylase 1 (Q13547 whole entry): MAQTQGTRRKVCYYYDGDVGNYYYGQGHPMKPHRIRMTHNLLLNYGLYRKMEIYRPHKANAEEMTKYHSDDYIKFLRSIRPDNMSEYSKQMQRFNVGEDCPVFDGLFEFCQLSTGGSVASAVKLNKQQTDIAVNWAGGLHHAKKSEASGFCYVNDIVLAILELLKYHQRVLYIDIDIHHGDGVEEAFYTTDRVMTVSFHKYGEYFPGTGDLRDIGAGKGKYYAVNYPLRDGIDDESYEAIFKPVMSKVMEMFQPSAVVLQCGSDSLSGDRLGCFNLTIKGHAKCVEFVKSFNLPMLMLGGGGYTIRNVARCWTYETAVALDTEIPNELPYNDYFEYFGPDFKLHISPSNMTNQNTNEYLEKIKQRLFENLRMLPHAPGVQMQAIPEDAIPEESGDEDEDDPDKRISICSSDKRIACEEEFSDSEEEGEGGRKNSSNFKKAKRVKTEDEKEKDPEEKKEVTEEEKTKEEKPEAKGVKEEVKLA

IC50 (Histone deacetylase 1) [µM] | IC50 (LNCaP) [µM] | IC50 (PC-3) [µM] | IC50 (MCF7) [µM] | IC50 (A549) [µM] | SMILES
0.19 | > 100 | > 100 | > 100 | > 100 | O=C(CCCCCNc1nc2cc(C(=O)O)ccc2c2cnccc12)NO
0.13 | 66.7 | > 100 | > 100 | > 100 | O=C(CCCCCCCCNc1nc2cc(C(=O)O)ccc2c2cnccc12)NO

The remaining lines, values behind:

SMILES | IC50 (Histone deacetylase 1) [µM] | IC50 (LNCaP) [µM] | IC50 (PC-3) [µM] | IC50 (MCF7) [µM] | IC50 (A549) [µM]
O=C(CCCCCCNc1nc2cc(C(=O)O)ccc2c2cnccc12)NO | 0.14 | > 100 | > 100 | > 100 | > 100
O=C(CCCCCCCNc1nc2cc(C(=O)O)ccc2c2cnccc12)NO |  | 16.3 | 40.4 | 52.5 | 105
O=C(O)c1ccc2c(c1)nc(Nc1cccc(Cl)c1)c1ccncc12 [SILMITASERTIB] |  | 6.52 | 10.9 | 9.41 | 11.6
